This note sets out measurements from patent US20080207708A1, “Oxazole and Thiazole Compounds and Their Use in the Treatment of Pge2 Mediated Disorders” (GLAXO GROUP LIMITED, priority 2005, published 2008).

Assay [1] has as its target T1, EP1 receptors (Homo sapiens, UniProt P34995).
T1 sequence (P34995 1-402): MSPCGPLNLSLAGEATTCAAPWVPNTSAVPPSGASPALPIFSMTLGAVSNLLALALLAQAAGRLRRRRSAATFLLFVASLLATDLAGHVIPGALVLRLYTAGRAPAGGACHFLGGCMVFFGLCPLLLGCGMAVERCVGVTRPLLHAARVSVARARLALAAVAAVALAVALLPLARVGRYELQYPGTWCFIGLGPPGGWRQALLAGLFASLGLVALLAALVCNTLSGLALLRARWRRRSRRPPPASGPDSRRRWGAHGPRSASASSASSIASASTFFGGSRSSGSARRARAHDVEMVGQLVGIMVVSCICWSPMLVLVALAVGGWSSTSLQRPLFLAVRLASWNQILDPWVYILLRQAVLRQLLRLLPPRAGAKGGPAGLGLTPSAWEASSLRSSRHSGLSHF
In words: human EP1 calcium mobilisation assay (CHO-K1 cells, FLIPR, PGE2). The assay is classed as cell-based. More on the design: expressed in transfected cells; host or cells: CHO-K1 cells, pCIN vector. Particulars: free bases or sodium salts; averages of a number of experiments; read-out: functional pKi value, human EP1 calcium mobilisation assay (converted). Here is the method:
Briefly, the antagonist properties of compounds are assessed by their ability to inhibit the mobilisation of intracellular calcium ([Ca^2+]i) in response to activation of EP1 or EP3 receptors by the natural agonist hormone prostaglandin E2 (PGE2). Increasing concentrations of antagonist reduce the amount of calcium that a given concentration of PGE2 can mobilise. The net effect is to displace the PGE2 concentration-effect curve to higher concentrations of PGE2. The amount of calcium produced is assessed using a calcium-sensitive fluorescent dye such as Fluo-4, AM and a suitable instrument such as a Fluorimetric Imaging Plate Reader (FLIPR). Increasing amounts of [Ca^2+]i produced by receptor activation increase the amount of fluorescence produced by the dye and give rise to an increasing signal. The signal may be detected using the FLIPR instrument and the data generated may be analysed with suitable curve-fitting software.
The human EP1 or EP3 calcium mobilisation assay (hereafter referred to as ‘the calcium assay’) utilises Chinese hamster ovary-K1 (CHO-K1) cells into which a stable (pCIN; BioTechniques 20 (1996): 102-110) vector containing either EP1 or EP3 cDNA has previously been transfected. Cells are cultured in suitable flasks containing culture medium such as DMEM:F-12 supplemented with 10% v/v foetal calf serum, 2 mM L-glutamine, 0.25 mg/ml geneticin, 100 μM flurbiprofen and 10 µg/ml puromycin. For assay, cells are harvested using a proprietary reagent that dislodges cells such as Versene. Cells are re-suspended in a suitable quantity of fresh culture media for introduction into a 384-well plate. Following incubation for 24 hours at 37° C. the culture media is replaced with a medium containing Fluo-4 and the detergent pluronic acid, and a further incubation takes place. Concentrations of compounds are then added to the plate in order to construct concentration-effect curves. This may be performed on the FLIPR in order to assess the agonist properties of the compounds. Concentrations of PGE2 are then added to the plate in order to assess the antagonist properties of the compounds. The data so generated may be analysed by means of a computerised curve-fitting routine. The concentration of compound that elicits a half-maximal inhibition of the calcium mobilisation induced by PGE2 (pIC50) may then be estimated.
Background: A change in cytosolic calcium serves as a functional read-out for many receptors and channels.

Assay [2] deals with T1, EP1 receptors. In words: Binding assay for the human prostanoid EP1 receptor (competition with [3H]-PGE2). More on the design: expressed in transfected cells; host or cells: CHO-K1 cells, membrane fraction. Particulars: [3H]-PGE2 competition; averages of a number of experiments; read-out: pIC50 value, binding assay for the human prostanoid EP1 receptor (converted). In a few lines: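 Competition against 3 nM (final) tritiated PGE2 at 30° C for 30 min, pH 6 MES assay buffer, using membranes of stably transfected CHO-K1 cells. Filter-retained counts by scintillation; nonlinear curve fitting gives concentration inhibiting 50% of specific binding.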

Structures can show the parent of a compound that is named as a salt.

Turning to `CC(C(=O)O)c1csc(-c2cc(Cl)ccc2OCc2ccccc2)n1` (stereo not drawn) [Example 46, Sodium 2-(2-{5-chloro-2-[(phenylmethyl)oxy]phenyl}-1,3-thiazol-4-yl)propanoate], the Ki in assay [1] was less than 1000 nM. In addition, the IC50 in assay [2] was not above 1000 nM.
As to `CC(C(=O)O)c1csc(-c2cc(Br)ccc2OCc2ccccc2)n1` (stereo not drawn) [Example 47, Sodium 2-(2-{5-bromo-2-[(phenylmethyl)oxy]phenyl}-1,3-thiazol-4-yl)propanoate], in assay [1], the Ki was less than 1000 nM. Moreover, the IC50 in assay [2] was not above 1000 nM.
Take `CC(C)(C(=O)O)c1csc(-c2cc(Cl)ccc2OCc2ccccc2)n1` [Example 48, Sodium 2-(2-{5-chloro-2-[(phenylmethyl)oxy]phenyl}-1,3-thiazol-4-yl)-2-methylpropanoate]: in assay [1], the Ki was less than 1000 nM. Besides, the IC50 in assay [2] is not above 1000 nM.
On to `CC(C)(C(=O)O)c1csc(-c2cc(Br)ccc2OCc2ccccc2)n1` [Example 49, Sodium 2-(2-{5-bromo-2-[(phenylmethyl)oxy]phenyl}-1,3-thiazol-4-yl)-2-methylpropanoate], for which the Ki in assay [1] is less than 1000 nM. Further, the IC50 in assay [2] was not above 1000 nM.
On the same counts, the results for `CC(c1nc(C(=O)O)cs1)c1cc(Cl)ccc1OCc1ccccc1` (stereo not drawn) [Example 50] are less than 1000 nM and not above 1000 nM.
`O=C(O)Cc1coc(-c2cc(Cl)ccc2OCc2ccc(F)cc2F)n1` [Example 79, [2-(5-chloro-2-{[(2,4-difluorophenyl)-methyl]oxy}phenyl)-1,3-oxazol-4-yl]acetic acid]: the Ki in assay [1] is more than 1000 nM. Moreover, the IC50 in assay [2] is not above 1000 nM.
For `O=C(O)Cc1coc(-c2cc(Cl)ccc2OCc2c(F)cc(F)cc2F)n1` [Example 80, [2-(5-chloro-2-{[(2,4,6-trifluorophenyl)methyl]oxy}phenyl)-1,3-oxazol-4-yl]acetic acid], in that order: more than 1000 nM and not above 1000 nM.
On the same counts, the results for `O=C(O)Cc1coc(-c2cc(Cl)ccc2OCc2ccc(F)cc2Cl)n1` [Example 81, [2-(5-chloro-2-{[(2-chloro-4-fluorophenyl)methyl]oxy}phenyl)-1,3-oxazol-4-yl]acetic acid] are more than 1000 nM and not above 1000 nM.
For `O=C(Nc1ccccc1)c1csc(Cc2cc(Cl)ccc2OCc2ccccc2)n1` [Example 91, 2-({5-Chloro-2-[(phenylmethyl)oxy]phenyl}methyl)-N-phenyl-1,3-thiazole-4-carboxamide], the Ki in assay [1] is more than 1000 nM. For the same compound, the IC50 in assay [2] is not above 1000 nM.
For `O=C(NCc1ccccc1)c1csc(Cc2cc(Cl)ccc2OCc2ccccc2)n1` [Example 92, 2-({5-Chloro-2-[(phenylmethyl)oxy]phenyl}methyl)-N-(phenylmethyl)-1,3-thiazole-4-carboxamide], in that order: more than 1000 nM and not above 1000 nM.
`CC(C)COc1ccc(Cl)cc1Cc1nc(-c2nnc[nH]2)cs1` [Example 157, 3-[2-({5-Chloro-2-[(2-methyl-propyl)oxy]-phenyl}methyl)-1,3-thiazol-4-yl]-1H-1,2,4-triazole]: the IC50 in assay [2] is not above 1000 nM.
With `CC(C)(C)OC(=O)Nc1coc(Cc2cc(Cl)ccc2OCc2ccccc2)n1` [Example 161, 1,1-Dimethylethyl [2-({5-chloro-2-[(phenylmethyl)oxy]phenyl}methyl)-1,3-oxazol-4-yl]carbamate], the IC50 in assay [2] is more than 1000 nM.
The same measure, in the same setting: with `CC(C)COc1ccc(Cl)cc1Cc1nc(-c2nc3ccccc3[nH]2)co1` [Example 162, 2-[2-({5-Chloro-2-[(2-methylpropyl)oxy]phenyl}methyl)-1,3-oxazol-4-yl]-1H-benzimidazole hydrochloride] the figure was not above 31.6 nM; with `CC(C)COc1ccc(Cl)cc1Cc1nc(-c2nc3cc(N4CCN(C)CC4)ccc3[nH]2)co1` [Example 163, 2-[2-({5-Chloro-2-[(2-methylpropyl)oxy]phenyl}methyl)-1,3-oxazol-4-yl]-5-(4-methyl-1-piperazinyl)-1H-benzimidazoletrihydrochloride], not above 31.6 nM.
